According to patent US6642217B2, “Triterpenes having human antifungal and antiyeast activity” (Naturtek, LLC, priority 2000, dated 2003):

Tests used:
Trichophyton rubrum [1] = test: Direct addition method, solid compound in Sabouraud dextrose agar; format: cell-based; conditions: against Trichophyton rubrum
Method: (§1) Direct addition method. Sabouraud dextrose agar was prepared according to the manufacturer's instructions and 5.0 ml was dispensed in each 100×25 mm tube. The tubes were autoclaved. To each tube containing 5.0 ml of liquid agar at 45° C., 20 mg of solid test compound was added, to give a final concentration of 4 mg/ml. The agar was solidified in slants. The fungal cultures were then innoculated. The slants were incubated at 25-28 ° C. for 10-12 days, and the growth of the fungus was recorded every second day. The results in Table 2 indicate growth at the 12th day of inoculation.

Microsporum audouinni [2] = test: as above; format: cell-based, Microsporum audouinii; design: key to Fungal growth: +++: Maximum Fungal Growth; ++: Moderate Fungal Growth; +: Minimum Fungal Growth; +/−: Very little Fungal Growth; −: No Fungal Growth; conditions: 4 mg/mL of agar; 12th day after inoculation
How it was run: (§2)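 Presence or absence of fungal growth was noted on alternate days, with the day-12 observation used. Test material, added undissolved to 45° C. Sabouraud dextrose medium to reach 4 mg/ml final, was solidified as slants before inoculation and incubation at 25-28° C.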

Epidermophyton floccosum [3] = test: as above; format: cell-based; design: key: +++: Maximum Fungal Growth; ++: Moderate Fungal Growth; +: Minimum Fungal Growth; +/−: Very little Fungal Growth; −: No Fungal Growth; conditions: 4 mg/mL of agar; 12th day after inoculation
How it was run: as §2

Pityrosporum ovale [4] = test: as above; format: cell-based; design: key: +++: Maximum Fungal Growth; ++: Moderate Fungal Growth; +: Minimum Fungal Growth; +/−: Very little Fungal Growth; −: No Fungal Growth; conditions: 4 mg/mL of agar; 12th day after inoculation
How it was run: as §2

Microsporum canis [5] = test: as above; format: cell-based; design: key: +++: Maximum Fungal Growth; ++: Moderate Fungal Growth; +: Minimum Fungal Growth; +/−: Very little Fungal Growth; −: No Fungal Growth; conditions: 4 mg/mL of agar; 12th day after inoculation
How it was run: as §2

Pityrosporum ovale [6] = test: Direct addition into the Pityrosporum agar; format: cell-based; design: key to Pityrosporum ovale growth: +++: Maximum Growth; ++: Moderate Growth; +: Minimum Growth; +/−: Very Little Growth; −: No Growth; conditions: 4 mg/ml in the agar; 18 hours after inoculation
Method: as §1, with “The slants were incubated at 25-28 ° C. for 10-12 days, and the growth of the fungus was recorded every second day. The results in Table 2 indicate growth at the 12th day of inoculation.” left out

Trichophyton rubrum [7] = test: Direct addition method, solid compound in Sabouraud dextrose agar; format: cell-based; design: key: +++: Maximum Fungal Growth; ++: Moderate Fungal Growth; +: Minimum Fungal Growth; +/−: Very Little Fungal Growth; −: No Fungal Growth; conditions: 4 mg/mL of agar; 12th day after inoculation
Method: as §1

Microsporum gypseum [8] = test: Agar dilution method, growth on Sabouraud dextrose agar slants; format: cell-based; design: key: +++: Maximum Fungal Growth; ++: Moderate Fungal Growth; +: Minimum Fungal Growth; +/−: Very little Fungal Growth; −: No Fungal Growth; conditions: 12th day after inoculation
How it was run: (§3)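 Compound, dissolved in DMSO, was mixed into molten Sabouraud dextrose agar at 45 °C and set as slants before fungal inoculation. Slants were incubated at 25-28 °C for 10-12 days, with growth scored every second day.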

Pityrosporum ovale [9] = test: as above; format: cell-based; design: key: +++: Maximum Fungal Growth; ++: Moderate Fungal Growth; +: Minimum Fungal Growth; +/−: Very little Fungal Growth; −: No Fungal Growth; conditions: 12th day after inoculation
How it was run: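 In this agar dilution format, DMSO solutions of compound went into liquid Sabouraud dextrose agar (45 °C), which was slanted and inoculated. Incubation ran 10-12 days at 25-28 °C.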

Trichophyton rubrum [10] = test: as above; format: cell-based; design: key: +++: Maximum Fungal Growth; ++: Moderate Fungal Growth; +: Minimum Fungal Growth; +/−: Very little Fungal Growth; −: No Fungal Growth; conditions: 12th day after inoculation
How it was run: as §3

Microsporum canis [11] = test: as above; format: cell-based; design: key: +++: Maximum Fungal Growth; ++: Moderate Fungal Growth; +: Minimum Fungal Growth; +/−: Very little Fungal Growth; −: No Fungal Growth; conditions: 12th day after inoculation
How it was run: as §3

Trichophyton tonsurans = test: Summary of anti-fungal assays (direct addition, agar dilution, liquid culture); format: cell-based; conditions: stated in words (Tables 1a/1b, text to Table 5)
Method: (§4) This example summarizes the results of various other assays of the anti-fungal activity of betulin derivatives. Table 5 summarizes results using different assay methods—direct addition, agar dilution, and direct addition to liquid culture, as disclosed in the previous three Examples. In some cases, only one type of assay was done with a compound. In other cases, the compound was tested by multiple assays.

Microsporum gypseum [12] = test: as above; format: cell-based; conditions: stated in words (Tables 1a/1b, text to Table 5)
Method: as §4

Epidermophyton floccosum [13] = test: as above; format: cell-based; conditions: stated in words (Tables 1a/1b, text to Table 5); listed as betulin-3,28-diphthalate
Method: as §4

Microsporum audouinii = test: as above; format: cell-based; conditions: stated in words (Tables 1a/1b, text to Table 5)
Method: as §4

Epidermophyton floccosum [14] = test: Agar dilution method, growth on Sabouraud dextrose agar slants; format: cell-based; design: key to Fungal growth: +++: Maximum Fungal Growth; ++: Moderate Fungal Growth; +: Minimum Fungal Growth; +/−: Very little Fungal Growth; −: No Fungal Growth; conditions: for Fungal growth: 12th day after inoculation
How it was run: as §3

Microsporum audouinni [15] = test: as above; format: cell-based, Microsporum audouinii; design: key: +++: Maximum Fungal Growth; ++: Moderate Fungal Growth; +: Minimum Fungal Growth; +/−: Very little Fungal Growth; −: No Fungal Growth; conditions: 12th day after inoculation
How it was run: as §3

Trichophyton tonsuran = test: as above; format: cell-based, Trichophyton tonsurans; design: key: +++: Maximum Fungal Growth; ++: Moderate Fungal Growth; +: Minimum Fungal Growth; +/−: Very little Fungal Growth; −: No Fungal Growth; conditions: 12th day after inoculation
How it was run: as §3

[16] = system: Trichophyton mentagrophyte; test: as above; format: cell-based, Trichophyton mentagrophytes; design: key to Fungal growth: +++: Maximum Fungal Growth; ++: Moderate Fungal Growth; +: Minimum Fungal Growth; +/−: Very little Fungal Growth; −: No Fungal Growth; conditions: 12th day after inoculation
How it was run: as §3

Q: What does the source list for `C=C(C)C1CCC2(COC(=O)C(N)C(C)C)CCC3(C)C(CCC4C5(C)CCC(OC(=O)C(N)C(C)C)C(C)(C)C5CCC43C)C12` [Betulin-3,28-di-L-valine]?
A: best anti-fungal or anti-yeast activity by the direct addition method (Trichophyton rubrum [1]): against Trichophyton rubrum; Fungal growth (Microsporum audouinni [2]): +; Fungal growth (Epidermophyton floccosum [3]): −; Fungal growth (Pityrosporum ovale [4]): −; Fungal growth (Microsporum canis [5]): +; Pityrosporum ovale growth (Pityrosporum ovale [6]): +/−; Fungal growth (Trichophyton rubrum [7]): +/−

Q: Which results are given for `C=C(C)[C@@H]1CC[C@]2(COC(=O)c3ccccc3C(=O)O)CC[C@]3(C)[C@H](CC[C@@H]4[C@@]5(C)CC[C@H](OC(=O)c6ccccc6C(=O)O)C(C)(C)[C@@H]5CC[C@]43C)[C@@H]12` [Betulin-3,28-diphthalate]?
A: Fungal growth (Microsporum gypseum [8]; 125 μg/ml): ++; Fungal growth (Microsporum gypseum [8]; 250 μg/ml): +; Fungal growth (Microsporum gypseum [8]; 500 μg/ml): −; Fungal growth (Microsporum gypseum [8]; 1000 μg/ml): −; Fungal growth (Pityrosporum ovale [9]; 125 μg/ml): +++; Fungal growth (Pityrosporum ovale [9]; 250 μg/ml): +++; Fungal growth (Pityrosporum ovale [9]; 500 μg/ml): +++; Fungal growth (Pityrosporum ovale [9]; 1000 μg/ml): ++; Fungal growth (Trichophyton rubrum [10]; 125 μg/ml): ++; Fungal growth (Trichophyton rubrum [10]; 250 μg/ml): ++; Fungal growth (Trichophyton rubrum [10]; 500 μg/ml): +; Fungal growth (Trichophyton rubrum [10]; 1000 μg/ml): −; Fungal growth (Microsporum canis [11]; 125 μg/ml): ++; Fungal growth (Microsporum canis [11]; 250 μg/ml): +; Fungal growth (Microsporum canis [11]; 500 μg/ml): −; Fungal growth (Microsporum canis [11]; 1000 μg/ml): −; Active against Trichophyton tonsurans (Trichophyton tonsurans): Trichophyton tonsurans; Active against Microsporum gypseum (Microsporum gypseum [12]): Microsporum gypseum; Active against Epidermophyton floccosum (Epidermophyton floccosum [13]): against Epidermophyton floccosum; Active against Microsporum audouinii (Microsporum audouinii): Microsporum audouinii; Fungal growth (Epidermophyton floccosum [14]; 125 μg/ml): ++; Fungal growth (Epidermophyton floccosum [14]; 250 μg/ml): ++; Fungal growth (Epidermophyton floccosum [14]; 500 μg/ml): +/−; Fungal growth (Epidermophyton floccosum [14]; 1000 μg/ml): −; best antifungal or anti-yeast activity by the agar dilution method (Epidermophyton floccosum [14]; against Epidermophyton floccosum): against Epidermophyton floccosum; Fungal growth (Microsporum audouinni [15]; 125 μg/ml): ++; Fungal growth (Microsporum audouinni [15]; 250 μg/ml): +; Fungal growth (Microsporum audouinni [15]; 500 μg/ml): −; Fungal growth (Microsporum audouinni [15]; 1000 μg/ml): −; Fungal growth (Trichophyton tonsuran; 125 μg/ml): +++; Fungal growth (Trichophyton tonsuran; 250 μg/ml): ++; Fungal growth (Trichophyton tonsuran; 500 μg/ml): +/−; Fungal growth (Trichophyton tonsuran; 1000 μg/ml): −; Fungal growth ([16]; 125 μg/ml): ++; Fungal growth ([16]; 250 μg/ml): +; Fungal growth ([16]; 500 μg/ml): −; Fungal growth ([16]; 1000 μg/ml): −
